Three molecules from patent US7112578B2, “Methods and compositions for treatment of inflammatory disease” (priority 2000, dated 2006) can be followed below.

What all share (assay type): in vivo, human
Data set [1] relates to ankle and knee arthritis pain. In words: Treatment of ankle and knee arthritis with a CMO compound and doxycycline (case report).
For the next data set, the system named is bilateral hip arthritis. Nature of the data set: Treatment of bilateral hip arthritis with a CMO compound and doxycycline (case report). As to the method: Doxycycline therapy was used for treatment of a middle aged person suffering from bilateral hip arthritis and experiencing severe pain despite increasing doses of NSAIDs. […] Cox-2 inhibitors were substituted for the NSAID agents with better results. However, over time, it was necessary to increase the doses of both agents to two to three times the initial dose in order to maintain adequate symptomatic relief. […] A CMO compound was added and the dosage of the other agents decreased to initial levels. […] The Cox-2 agent was discontinued with no increase in severity of symptoms.

A further data set deals with knee arthritis. Nature of the data set: Treatment of knee arthritis with a CMO compound and a tetracycline compound (case report). As to the method: NSAID therapy was halted and tetracycline therapy was added.
The test system of another data set is bee sting. In words: Relief of venom induced inflammation, topical treatment of bee stings (case report). The following applies: bee sting on one arm of the same individual. As to the method: Different bee stings on the same individual were treated by two different methods. A bee sting on one arm was treated with papain with mild relief from pain and swelling. A second bee sting on the other arm was treated with papain, a eutectic mixture of local anaesthetics (EMLA®) and a topical steroid (Kenalog). […] The improved relief from pain was apparent even after all other sensation had returned to normal in the area which received the EMLA® treatment.

Setting [2] is: dosage of doxycycline and Cox-2 agent decreased to initial levels.

With `CCCC/C=C\CCCCCCCC(=O)OCCCCCCCCCCCCCCCC` [CMO, cetyl myristoleate], the “symptoms when the agent was discontinued” value in data set [1] (combination of CMO compound and doxycycline) is “Symptoms returned”; in the data set on bilateral hip arthritis (patient on CMO compound and doxycycline) it was “worsening symptomatology”; in the data set with knee arthritis (despite increase in dose of the remaining agent) it was “symptoms worsened”. The “relief of ankle and knee arthritis pain” value in data set [1] (female senior citizen, CMO therapy alone) is given as “no or minimal relief”. Moreover, the “side effects after a CMO compound was added” value with bilateral hip arthritis (setting [2]) is “side effects disappeared”. Also, the “symptomatic relief after a CMO compound was added” value in the data set on bilateral hip arthritis (setting [2]) is “improved symptomatic relief”. In the data set on knee arthritis (middle-aged, one patient), the “symptomatic relief of knee arthritis” value is on record as “did not respond well”.

`C[C@H]1c2cccc(O)c2C(=O)C2=C(O)[C@]3(O)C(=O)C(C(N)=O)=C(O)[C@@H](N(C)C)[C@@H]3[C@@H](O)[C@@H]21` [doxycycline, reference compound]: the “side effects at two to three times the initial dose of both agents” value with bilateral hip arthritis (doxycycline with Cox-2 inhibitor) is “dizziness, nausea and abdominal pain”. Further, the “side effect, doxycycline added to NSAIDs” value in the data set with bilateral hip arthritis (middle aged person) is “gastrointestinal upset was problematic”.

B1: papain (protein, UniProt P00784 134-345, looked up)
Papain: IPEYVDWRQKGAVTPVKNQGSCGSCWAFSAVVTIEGIIKIRTGNLNEYSEQELLDCDRRSYGCNGGYPWSALQLVAQYGIHYRNTYPYEGVQRYCRSREKGPYAAKTDGVRQVQPYNEGALLYSIANQPVSVVLEAAGKDFQLYRGGIFVGPCGNKVDHAVAAVGYGPNYILIKNSWGTGWGENGYIRIKRGTGNSYGVCGLYTSSFYPVKN
notes: proteolytic enzyme applied topically
In the case of B1, in the data set on bee sting, the relief from pain result is reported as “mild relief” and the swelling result is recorded as “mild relief”.
